Assay results: patent publication US20190365675A1, “COMPOSITIONS FOR THE PREVENTION AND/OR TREATMENT OF ALCOHOL USE DISORDERS” (SERVICIO ANDALUZ DE SALUD, priority 2016, published 2019)

Key:
Assay type in all cases: in vivo, Wistar rats
control animals = assay: OEA time curve in control animals; details: time curve 3 h, 6 h, 24 h; some trends at 3 h (TLR4, p65)
Description: A time curve (n=18) was also established with OEA (3 h, 6 h, and 24 h) to rule out any effect in the control animals.

iNOS = iNOS mRNA in frontal cortex after ethanol intoxication; details: OEA pre-treatment
Description: (§1) The animals were treated with intragastric (i.g.) ethanol 3 times a day using an i.g. cannula (16G needle, Fisher Scientific, Waltham, Mass., USA), following a protocol based on a slightly modified standard 4-day alcohol intoxication pattern (Bernier et al., 2002a, b) (FIG. 1A). The ethanol doses were administered every 8 h for a total time of 4 days. The rats treated with ethanol received an initial loading dose of 5 g/kg of ethanol in a 30% solution (w/v) and then a maximum maintenance dose of 3 g/kg, which were determined based on blood ethanol levels (BEL). This repeated standard alcohol intoxication paradigm kept BEL intoxication relatively constant in a range of sedation/ataxia (190 to 430 mg/dl, Table 3), according to the 6-point alcohol intoxication behavior scale (Majchrowicz, 1975). The mean dose of ethanol/rat/day (days 1-4) was 7.06 g/kg, similar to other studies (Obernier et al., 2002a, b). OEA (5 mg/kg, i.p., except initial dose of 10 mg/kg i.p.; synthesized as described in Giuffrida et al., 2000) was dissolved in the vehicle (5% Tween-80 in saline solution) and injected 10 minutes before each of the administrations of ethanol by an intragastric gavage. […] The quantitative changes in mRNA levels were estimated by means of RT-PCR, carried out in the presence of the SYBR green primer using a 20-L reaction in a Rotor-Gene (Corbett Research®, Mortlake, NSW, Australia). […]

MD2 = MD2 protein expression in frontal cortex after ethanol intoxication; details: 2-4 h after last ethanol, OEA pre-treatment
Description: as §1, with “autoradiograph was quantified” for “quantitative changes in mRNA levels were estimated”, “densitometry (NIH ImageJ® software, National Biosciences, Lincoln, Nebr. USA) and expressed as optical density (OD).” for “means of RT-PCR, carried out in the presence of the SYBR green primer using a 20-L reaction in a Rotor-Gene (Corbett Research®, Mortlake, NSW, Australia).”

rats = assay: Elevated plus maze test during ethanol withdrawal
Description: In this third experiment (n=25), the treatment with ethanol intoxication and pre-treatment with OEA applied in experiment 2 was repeated, and the animals were subjected to elevated plus maze test 24 h and 12 days after the last forced administration of ethanol and to the forced swim test 48 h after the ethanol intoxication protocol. The rats were subjected to the forced swim test two days after the last ethanol force-feeding (see FIG. 1C for the experimental design), and specific behaviors were recorded with a digital video camera for 5 minutes. These same rats were also subjected to the elevated plus maze test equipped with infrared light photography (Panlab, Barcelona, Spain) 1 and 12 days after the last ethanol force-feeding, where the animals were allowed to freely explore the maze for 5 minutes. The tests were performed 3 h after the start of the dark phase.

CCCCCCCC/C=C\CCCCCCCC(=O)NCCO [OEA, oleoylethanolamide]
Effect of OEA on the parameters in control animals (control animals): did not significantly modify
Ethanol-induced increase in expression of iNOS mRNA (iNOS): entirely prevented
Ethanol-induced increase in MD2 protein (MD2): inhibited
Elevated plus maze: percentage of entries and time in the open arms (rats; 24 h after ethanol intoxication, Dunn's post-hoc test did not find significant effects): clear trend that shows a clear anxiolytic effect
Elevated plus maze: percentage of entries and time in the open arms (rats; 12 days after ethanol intoxication): not significant
